From ChEMBL document CHEMBL1201862, “PubChem BioAssay data set” (2004)
The source made the active and inactive calls.

Assays:
[1] = molecular target: T1, Glutathione-S-transferase (Schistosoma japonicum, UniProt Q26513); test: GST-antibody interaction or FRET quenching – biochemical, TR-FRET, artefact control for Vif-APOBEC3G degradation inhibitor project, dose response (AID 1117362); assay type: functional
T1 sequence (Q26513 whole entry): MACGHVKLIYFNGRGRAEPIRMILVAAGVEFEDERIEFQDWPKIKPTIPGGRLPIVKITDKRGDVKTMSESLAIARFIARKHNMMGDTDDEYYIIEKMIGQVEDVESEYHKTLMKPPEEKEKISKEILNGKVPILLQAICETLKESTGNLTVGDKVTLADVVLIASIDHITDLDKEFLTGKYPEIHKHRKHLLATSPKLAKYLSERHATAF

[2] = molecular target: T2, RNA-binding protein pos-1 (Caenorhabditis elegans, UniProt G5EF15); test: disruptors of C. elegans POS-1 RNA interaction – biochemical, fluorescence polarization, dose response (AID 1964);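 also: purified POS-1 fused to maltose binding protein made in E. coli; potency of compounds blocking POS-1 binding to fluorescent RNA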
T2 sequence (G5EF15 whole entry): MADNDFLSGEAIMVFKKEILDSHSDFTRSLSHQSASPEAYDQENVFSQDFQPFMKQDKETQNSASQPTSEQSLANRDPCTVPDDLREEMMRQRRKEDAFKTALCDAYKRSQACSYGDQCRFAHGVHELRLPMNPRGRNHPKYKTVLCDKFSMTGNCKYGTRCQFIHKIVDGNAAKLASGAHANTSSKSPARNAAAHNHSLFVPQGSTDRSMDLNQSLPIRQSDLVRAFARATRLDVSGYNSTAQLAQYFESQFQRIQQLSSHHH

[3] = molecular target: Probable nicotinate-nucleotide adenylyltransferase (Staphylococcus aureus (strain N315), UniProt P65502); assay type: functional, Staphylococcus aureus subsp. aureus N315;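 also: confirmatory retest of primary uHTS inhibitor hits against NadD over a range of doses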
Probable nicotinate-nucleotide adenylyltransferase, sequence (P65502 whole entry): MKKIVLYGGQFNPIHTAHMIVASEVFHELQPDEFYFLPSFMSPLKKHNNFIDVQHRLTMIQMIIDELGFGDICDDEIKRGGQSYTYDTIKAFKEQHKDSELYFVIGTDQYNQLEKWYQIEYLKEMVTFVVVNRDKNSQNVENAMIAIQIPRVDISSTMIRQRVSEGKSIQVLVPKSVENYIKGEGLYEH

Albumin = Albumin (Bos taurus, UniProt P02769); test: Counterscreen for inhibitors of T-cell receptor (TCR)-CD3 interaction: Fluorescence-based biochemical high throughput dose response assay to identify inhibitors of T-cell receptor (TCR)-CD3 interaction using a TAMRA-labeled BSA probe.; assay type: functional
Albumin, sequence (P02769 whole entry): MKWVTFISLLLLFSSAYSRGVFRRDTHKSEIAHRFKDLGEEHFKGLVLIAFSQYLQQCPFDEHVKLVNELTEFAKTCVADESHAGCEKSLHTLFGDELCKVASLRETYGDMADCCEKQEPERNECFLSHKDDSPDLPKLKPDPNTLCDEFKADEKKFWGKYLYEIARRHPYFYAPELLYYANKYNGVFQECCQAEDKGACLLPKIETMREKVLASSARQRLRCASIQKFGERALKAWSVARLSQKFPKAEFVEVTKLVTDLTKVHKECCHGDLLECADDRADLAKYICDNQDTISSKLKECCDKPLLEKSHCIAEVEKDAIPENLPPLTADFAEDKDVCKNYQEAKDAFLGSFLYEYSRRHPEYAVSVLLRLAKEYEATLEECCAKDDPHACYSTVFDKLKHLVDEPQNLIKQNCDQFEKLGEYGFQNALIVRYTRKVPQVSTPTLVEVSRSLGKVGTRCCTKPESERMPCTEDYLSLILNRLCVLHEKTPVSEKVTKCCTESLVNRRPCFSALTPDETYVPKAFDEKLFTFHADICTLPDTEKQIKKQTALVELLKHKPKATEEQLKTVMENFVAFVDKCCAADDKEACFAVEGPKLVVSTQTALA

Aminopeptidase N = molecular target: T3, Aminopeptidase N (Plasmodium falciparum FcB1/Columbia, UniProt O96935); test: malaria alanyl aminopeptidase activity blockers – biochemical, fluorogenic H-Leu-NHMec substrate, 1536-well (AID 1445); set-up: species or system Plasmodium falciparum 3D7, 3D7
T3 sequence (O96935 whole entry): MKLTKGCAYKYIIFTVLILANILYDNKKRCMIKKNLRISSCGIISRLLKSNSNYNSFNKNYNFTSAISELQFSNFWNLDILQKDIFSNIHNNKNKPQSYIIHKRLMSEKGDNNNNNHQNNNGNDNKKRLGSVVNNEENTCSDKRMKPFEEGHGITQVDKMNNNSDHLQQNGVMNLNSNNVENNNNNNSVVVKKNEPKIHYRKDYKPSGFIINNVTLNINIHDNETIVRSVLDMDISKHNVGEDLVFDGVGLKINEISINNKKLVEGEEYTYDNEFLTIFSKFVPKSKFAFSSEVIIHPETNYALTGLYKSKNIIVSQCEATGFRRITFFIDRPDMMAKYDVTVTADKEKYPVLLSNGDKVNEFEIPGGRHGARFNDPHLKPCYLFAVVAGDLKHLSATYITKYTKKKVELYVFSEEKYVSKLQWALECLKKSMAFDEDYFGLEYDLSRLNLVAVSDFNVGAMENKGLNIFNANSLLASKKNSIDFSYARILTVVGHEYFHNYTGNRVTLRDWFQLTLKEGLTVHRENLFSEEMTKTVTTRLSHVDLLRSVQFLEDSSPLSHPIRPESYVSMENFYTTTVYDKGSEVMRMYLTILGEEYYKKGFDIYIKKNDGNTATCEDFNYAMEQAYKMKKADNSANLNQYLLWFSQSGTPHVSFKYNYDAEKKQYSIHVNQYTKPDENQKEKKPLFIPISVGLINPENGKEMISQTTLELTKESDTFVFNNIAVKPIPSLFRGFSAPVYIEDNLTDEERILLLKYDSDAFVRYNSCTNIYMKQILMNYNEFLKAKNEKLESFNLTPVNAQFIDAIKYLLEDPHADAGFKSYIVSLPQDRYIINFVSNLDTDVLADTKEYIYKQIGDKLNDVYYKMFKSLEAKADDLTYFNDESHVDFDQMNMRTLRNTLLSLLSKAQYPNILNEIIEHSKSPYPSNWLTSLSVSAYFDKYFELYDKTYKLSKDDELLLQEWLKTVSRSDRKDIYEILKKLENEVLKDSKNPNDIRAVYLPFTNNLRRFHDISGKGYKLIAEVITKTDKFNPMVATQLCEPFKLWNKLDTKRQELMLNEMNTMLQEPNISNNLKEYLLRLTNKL

Phospholipase A2 = Phospholipase A2 (Homo sapiens, UniProt P04054); assay type: functional;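 also: confirmatory dose-response counterscreen on phospholipase A2, testing hits that came from an ultra-high-throughput screen for ATG4B inhibitors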
Phospholipase A2, sequence (P04054 whole entry): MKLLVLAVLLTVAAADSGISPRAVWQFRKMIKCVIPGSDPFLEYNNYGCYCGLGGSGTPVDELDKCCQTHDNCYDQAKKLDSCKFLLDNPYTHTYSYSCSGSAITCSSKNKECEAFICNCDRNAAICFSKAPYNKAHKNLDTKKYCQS

BJ = test: BJ-TERT-LT-ST fibroblast viability loss – cell-based, RAS-independent, luminescence, dose response (AID 1935); assay type: functional; settings: Homo sapiens;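 also: BJ fibroblasts immortalized with TERT plus LT and ST oncogenes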
[4] = molecular target: Dual specificity protein phosphatase 3 (Homo sapiens, UniProt P51452); test: VHR1 phosphatase inhibitors, primary screen, biochemical, absorbance, uHTS (AID 1654)
Dual specificity protein phosphatase 3, sequence (P51452 whole entry): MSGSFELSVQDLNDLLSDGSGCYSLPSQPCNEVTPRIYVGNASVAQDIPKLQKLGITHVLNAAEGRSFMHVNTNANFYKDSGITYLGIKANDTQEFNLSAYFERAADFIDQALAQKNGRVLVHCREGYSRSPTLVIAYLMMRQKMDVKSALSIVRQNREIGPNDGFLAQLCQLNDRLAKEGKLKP

[5] = molecular target: T4, Dual specificity protein phosphatase 6 (Rattus norvegicus, UniProt Q64346); test: inhibition of rat DUSP6 enzyme activity – biochemical, in vitro, primary screen (AID 425)
T4 sequence (Q64346 whole entry): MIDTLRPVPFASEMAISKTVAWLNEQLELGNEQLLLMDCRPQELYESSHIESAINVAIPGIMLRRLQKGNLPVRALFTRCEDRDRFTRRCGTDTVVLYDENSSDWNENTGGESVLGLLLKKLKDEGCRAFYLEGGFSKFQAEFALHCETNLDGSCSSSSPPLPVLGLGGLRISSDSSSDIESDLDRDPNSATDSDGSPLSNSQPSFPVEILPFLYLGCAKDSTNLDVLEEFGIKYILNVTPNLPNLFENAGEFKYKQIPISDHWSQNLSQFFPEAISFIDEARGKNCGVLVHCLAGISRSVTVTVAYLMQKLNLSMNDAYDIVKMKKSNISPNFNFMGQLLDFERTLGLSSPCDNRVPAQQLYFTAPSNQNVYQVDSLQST

[6] = molecular target: T5, Tyrosine-protein phosphatase non-receptor type 7 (Homo sapiens, UniProt P35236); test: inhibition of hematopoietic tyrosine phosphatase HePTP – biochemical, set 2, SAR follow-up (AID 449736); assay type: functional
T5 sequence (P35236 whole entry): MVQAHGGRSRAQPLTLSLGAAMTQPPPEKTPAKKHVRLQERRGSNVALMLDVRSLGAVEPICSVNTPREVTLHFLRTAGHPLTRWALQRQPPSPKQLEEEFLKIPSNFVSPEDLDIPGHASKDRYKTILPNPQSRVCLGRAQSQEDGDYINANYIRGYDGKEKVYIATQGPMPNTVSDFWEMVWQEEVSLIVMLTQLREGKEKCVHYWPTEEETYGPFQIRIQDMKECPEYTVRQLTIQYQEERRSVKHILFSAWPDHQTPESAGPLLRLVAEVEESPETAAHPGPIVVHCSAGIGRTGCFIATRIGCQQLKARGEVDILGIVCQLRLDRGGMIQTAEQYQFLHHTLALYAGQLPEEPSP

COc1cc(NCCCNC(C)C)c2nccc(C)c2c1
IC50 [1]: 28.7 µM (active)

Nc1ccc2nc3c(O)nc(S)nc3nc2c1
EC50 [2]: 7.85 µM (inconclusive) | IC50 [3]: 7.46 µM (active) | IC50 (Albumin): 25.6 µM (inactive)

CC(/C=C1\SC(=S)N(NS(=O)(=O)c2ccccc2)C1=O)=C\c1ccccc1
IC50 (Aminopeptidase N): 45.4 µM (active) | IC50 (Phospholipase A2): 8.23 µM (active)

CCN1/C(=C/c2ccc3cc(C)ccc3[n+]2CC)Sc2cc(C)c(C)cc21
EC50 (BJ): 13.7 µM (inconclusive)

O=C(O)COc1ccc(/C=N/NC(=O)c2ccc(-c3csc(Nc4ccc(Cl)cc4)n3)cc2)cc1
IC50 [4]: 2.52 µM (active) | IC50 [5]: 27.3 µM (active) | IC50 [6]: 0.193 µM (active)
